Data: patent US20220339259A1, “ORALLY DELIVERED THERAPEUTICAL COMPOSITION AND USE THEREOF” (priority 2019, published 2022)
Read-outs that look alike come from different tables or passages of the source. One block for each compound: values may come before it.

Key:
[1] = Plasma ibrutinib level by HPLC after oral gavage; parameters: species or system mice; conditions: mouse, in vivo
Procedure: FIG. 16A-FIG. 16B. Examples of representative HPLC data. Plasma ibrutinib levels were measured by HPLC 3 hours after mice were treated by oral gavage with an equal amount of free ibrutinib and LCFA-ibrutinib. The ibrutinib peaks are indicated with arrows. There was a 3-fold increase in plasma ibrutinib level in mice treated with LCFA-ibrutinib (B) compared with those treated with free ibrutinib (A) based on the measurements of the area under the curve (AUC).
LCFA-conjugated ibrutinib was synthesized and characterized (FIG. 15A-FIG. 15C). To compare drug uptake between free ibrutinib and LCFA-ibrutinib, mice were treated with an equal amount of free ibrutinib or LCFA-ibrutinib. Blood samples were collected at different time points, and analyzed for ibrutinib content by HPLC. Area under the curve (AUC) of ibrutinib was calculated to evaluate plasma drug concentration (FIG. 16A-FIG. 16B).

c-Myc = assay: Knockdown of c-Myc expression in Caco-2 cells (Western blot); assay type: cell-based, human; conditions: 200 nM, without transfection reagent, 3 days
Procedure: FIG. 18. Examples of representative measurement data of protein expression. Western blot was performed to measure the suppression of c-Myc expression by LCFA-conjugated miR-34a mimic 3 days after Caco-2 cells were treated. c-Myc is a known target of miR-34a. Its expression level was detected both after a short exposure (short expo) and a relatively long exposure (long expo).
Caco-2 cells were seeded in 6-well cell culture plates, and treated (without any transfection reagent) with 200 nM free scramble siRNA (Scr), 200 nM free miR-34a mimic (miR-34a), or 200 nM LCFA-conjugated miR-34a (FA-miR-34a), respectively. Cells were harvested 3 days later, and lysed to prepare protein samples. Equal amount of protein samples was loaded in 10% SDS-polyacrylamide gels for Western blot analysis. The c-Myc protein was detected with an anti-c-Myc antibody. c-Myc expression levels were detected after both a short-time exposure (short expo) and relatively long-time exposure (long expo). β-Actin was served as an expression control (FIG. 18).

[2] = cited from earlier work
[3] = in human; co-formulated with SNAC; cited from earlier work
[4] = Intraperitoneal glucose tolerance test, GLP-1-Lys^26-LCFA in acid-neutralized mice; assay type: in vivo, male C57BL/6 mice
Procedure: FIG. 12. Additional examples of representative glucose tolerance assay results. Glucose tolerance assays were performed after treatment with free GLP-1 analogue or GLP-1-Lys^26-LCFA. Each mouse was treated orally with 100 μL 1M NaHCO3 to neutralize acid in the gastric fluid as described before. After 1 minute, the mice were treated p.o. with PBS, 100 μg free GLP-1 analogue (GLP-1), or 100 μg GLP-1-Lys^26-LCFA. The mice were then challenged with intraperitoneal injection of 2 g/kg glucose 1 hour after treatment.
Intraperitoneal GTT was performed in male C57BL/6 mice. Briefly, 6 to 12-week-old male C57BL/6 mice were fasted overnight and treated with 100 μL 1M NaHCO3 to neutralize acid in the gastric fluid. One minute later, the mice were treated with PBS, 100 μg GLP-1 analogue, or 100 μg GLP-1-Lys^26-LCFA by oral gavage, respectively. All mice were then treated with 2 g/kg glucose by intraperitoneal injection 1 hour later. Blood samples were collected to measure blood glucose levels. Area under the curve (AUC) of blood glucose was calculated to evaluate hypoglycemic response to each treatment (FIG. 12).

[5] = Intraperitoneal glucose tolerance test, Ex4-Lys^27-LCFA in acid-neutralized mice; assay type: in vivo, male C57BL/6 mice
Procedure: FIG. 11. […] Each mouse was treated orally with 100 μL 1M NaHCO3 to neutralize acid in the gastric fluid. […] The mice were then challenged with intraperitoneal injection of 2 g/kg glucose 1 hour after treatment.
Intraperitoneal glucose tolerance test (GTT) was performed in male C57BL/6 mice. Briefly, 6 to 12-week-old male C57BL/6 mice were fasted overnight and treated by oral gavage with 100 μL 1M NaHCO3 to neutralize acid in the gastric fluid. One minute later, the mice were treated with PBS, 100 μg Ex4, or 100 μg Ex4-Lys^27-LCFA by oral gavage, respectively. All mice were then treated with 2 g/kg glucose by intraperitoneal injection 1 hour later. Blood samples were collected to measure blood glucose levels. Area under the curve (AUC) of blood glucose was calculated to evaluate hypoglycemic response to each treatment (FIG. 11).

Caco-2 cells = assay: Uptake of fatty acid-Ex4 conjugate by Caco-2 cells; assay type: cell-based, human; conditions: Alexa594-labeled conjugates; incubation for one hour
Procedure: FIG. 10. Examples of representative results of Caco-2 cell uptake. The fatty acid-conjugated Ex4 molecules were incubated with Alexa594 (fluorescent dye)-labeled Ex4-Lys^27-LCFA having 12, 16 and 18 carbon fatty acids (C12, C16, C18, respectively) and Ex4-Lys^27-SCFA (short chain fatty acid having 8 carbons, shown as C8) and were taken up by the cells. Levels of uptake were determined based on fluorescent intensity (MFI) inside the cells.
Coco-2 cells were seeded in cell culture plates. Cells were incubated with either fluorescently labeled Ex4-Lys^27-SCFA (C8) or one of the fluorescently labeled Ex4-Lys^27-LCFA having a C12, C16 and C18 LCFA. After incubation for one hour, cells were washed with PBS to remove fatty acid-conjugated Ex4. A plate reader was applied to measure fluorescent intensity in each well in the cell culture plate, and the results were compared (FIG. 10).

[6] = 100 μg p.o. after 100 μL 1M NaHCO3, 2 g/kg glucose i.p. 1 hour after treatment, 15 minutes after challenge
[7] = 100 μg p.o. after NaHCO3, 2 g/kg glucose i.p. 1 hour later

Area under the curve (AUC) of ibrutinib in plasma (HPLC) [1]: 6.428 | increase in plasma ibrutinib level compared with free ibrutinib (based on AUC) ([1]; 3 h): 3 fold
Compound: C=CC(=O)N1CCCC(n2nc(-c3ccc(Oc4ccccc4)cc3)c3c(NC(=O)CCCCCCCCCCCCCCCCC(=O)O)ncnc32)C1 (centres unmarked) [LCFA-ibrutinib]

Compound: miR-34a: free microRNA-34a mimic duplex (SEQ ID. 3 and 4), unconjugated control (chain 1 UGGCAGUGUCUUAGCUGGUUGUTT; chain 2 ACAACCAGCUAAGACACUGCCATT; sense strand nucleotides 20 and 21 methylated, type of methylation not given here)
suppression of c-Myc expression (c-Myc): not

Compound: C=CC(=O)N1CCC[C@@H](n2nc(-c3ccc(Oc4ccccc4)cc3)c3c(N)ncnc32)C1 [ibrutinib]
oral bioavailability ([2]; fasting state): 3.9% | oral bioavailability ([2]; fed state): 8.4%

Compound: semaglutide
oral bioavailability [3]: barely detectable

Compound: free GLP-1: GLP-1 analogue with AIB at position 8 (SEQ ID. 2), unconjugated
blood glucose level after glucose challenge [4, 6]: high blood glucose levels | controlling blood glucose level after gavage in the acid-neutralized GI track [4, 7]: not

Compound: Ex4-Lys^27-LCFA: conjugated long-chain fatty acid and exendin-4 through lysine residue 27; C12, C16 and C18 dicarboxylic acids used
blood glucose level after glucose challenge [5, 6]: mild increase in blood glucose level | controlling blood glucose level after gavage in the acid-neutralized GI track [5, 7]: effective in controlling blood glucose level | levels of uptake by Caco-2 cells (fluorescent intensity, MFI) (Caco-2 cells): high uptake
